Structures can show the parent of a compound that is named as a salt.
System: L-687,414-induced hyperlocomotion
Assay: L-687,414-induced hyperlocomotion (Digiscan locomotor activity)
Format: in vivo, mouse
Details: mice; for inhibition at 30 mg/kg: dose ip 30 mg/kg; for ID50 po: dose producing 50% inhibition of L-687,414-induced hyperlocomotion, p.o. 15 min before s.c. 50 mg/kg L-687,414
Excerpt: The authors described that hyperlocomotion induced by L-687,414 was inhibited by a series of known antipsychotic drugs. […] These findings predict antipsychotic activity for the present compounds, making them useful for the treatment of positive (psychosis) and negative symptoms of schizophrenia, substance abuse, alcohol and drug addiction, obsessive-compulsive disorders, cognitive impairment, bipolar disorders, mood disorders, major depression, resistant depression, anxiety disorders, Alzheimer's disease, autism, Parkinson's disease, chronic pain, borderline personality disorder, sleep disturbances, chronic fatigue syndrome, stiffness, antiinflammatory effects in arthritis and balance problems.
The described compounds of formula I reduce L-687,414-induced hyperlocomotion. This was assessed by using a computerized Digiscan 16 Animal Activity Monitoring System (Omnitech Electronics, Columbus, Ohio) to quantify locomotor activity. Animals were kept under a 12 h light/dark cycle and experiments were performed during the light period. Each activity monitoring chamber consisted of a Plexiglas box (41×41×28 cm; W×L×H) with sawdust bedding on the floor surrounded by invisible horizontal and vertical infrared sensor beams. The test boxes were divided by a Plexiglas cross providing each mouse with 20×20 cm of moving space. Cages were connected to a Digiscan Analyzer linked to a computer that constantly collected the beam status information. Records of photocell beam interruptions for individual animals were taken every 5 min over the duration of the experimental session and the sum of the first 6 periods was used as the final parameter. Compounds were administered either p.o. 15 min before a s.c. injection of 50 mg/kg of L-687,414, or i.p. at the same time as a s.c. injection of 50 mg/kg of L-687,414. Mice were then transferred from their home cage to the recording chambers for a 15-min habituation phase allowing free exploration of the new environment. Horizontal activity was then recorded for a 30-min time period. The % inhibition of L-687,414-induced hyperlocomotion was calculated according to the equation: ((Veh+L-687,414 horizontal activity−drug+L-687,414 horizontal activity)Veh+L-687,414 horizontal activity)×100
ID50 values, defined as doses of each compound producing 50% inhibition of L-687,414-induced hyperlocomotion, were calculated by linear regression analysis of a dose-response data using an Excel-based computer-fitting program.
As data was not presupposed to be normally distributed, groups treated with test compounds were statistically compared with the control (vehicle-treated) group using one-tailed Mann Whitney U tests. In statistics, the Mann-Whitney Utest (also called the Mann-Whitney-Wilcoxon (MWW) or Wilcoxon rank-sum test) is a non-parametric statistical hypothesis test for assessing whether one of two samples of independent observations tends to have larger values than the other. It is one of the most well-known non-parametric significance tests. […] P values given in table 1 are one-tailed since only decreases in locomotion were expected and tested for (Mann, H. B., Whitney, D. R. (1947), “On a Test of Whether one of Two Random Variables is Stochastically Larger than the Other”, Annals of Mathematical Statistics, 18 (1), 50-60).

[1] = Mus musculus, at the same time as s.c. 50 mg/kg L-687,414

## CN1C(=O)C(C)(C)c2ccc(-c3cccnc3)cc21 [Example 3, 1,3,3-Trimethyl-6-(pyridin-3-yl)indolin-2-one]
[1]
  inhibition at 30 mg/kg: 53.4%

## CN1C(=O)C(C)(C)c2ccc(-c3cncnc3)cc21 [Example 4, 1,3,3-Trimethyl-6-(pyrimidin-5-yl)indolin-2-one]
[1]
  inhibition at 30 mg/kg: 74.6%

## CC1(C)C(=O)Nc2cc(-c3ccncc3)ccc21 [Example 7, 3,3-Dimethyl-6-(pyridin-4-yl)indolin-2-one]
  ID50 po: 29.2 mg/kg

## CC1(C)C(=O)Nc2cc(-c3cncnc3)ccc21 [Example 8, 3,3-Dimethyl-6-(pyrimidin-5-yl)indolin-2-one]
[1]
  inhibition at 30 mg/kg: 52.5%

## CN1C(=O)C(C)(C)c2ccc(-c3cnc(N)nc3)cc21 [Example 10, 6-(2-Aminopyrimidin-5-yl)-1,3,3-trimethylindolin-2-one]
[1]
  inhibition at 30 mg/kg: 97.1%

## CN(C)c1ncc(-c2ccc3c(c2)N(C)C(=O)C3(C)C)cn1 [Example 11, 6-(2-(Dimethylamino)pyrimidin-5-yl)-1,3,3-trimethylindolin-2-one]
[1]
  inhibition at 30 mg/kg: 72.2%

## Cc1ncc(-c2ccc3c(c2)N(C)C(=O)C3(C)C)cn1 [Example 12, 1,3,3-Trimethyl-6-(2-methylpyrimidin-5-yl)indolin-2-one]
[1]
  inhibition at 30 mg/kg: 93.7%

## CCc1ncncc1-c1ccc2c(c1)N(C)C(=O)C2(C)C [Example 14, 6-(4-Ethylpyrimidin-5-yl)-1,3,3-trimethylindolin-2-one]
[1]
  inhibition at 30 mg/kg: 66.4%

## CC1(C)C(=O)Nc2cc(-c3cnc(N)nc3)ccc21 [Example 16, 6-(2-Aminopyrimidin-5-yl)-3,3-dimethylindolin-2-one]
[1]
  inhibition at 30 mg/kg: 89.4%

## CC1(C)C(=O)Nc2cc(-c3ccnnc3)ccc21 [Example 17, 3,3-Dimethyl-6-(pyridazin-4-yl)indolin-2-one]
[1]
  inhibition at 30 mg/kg: 66.7%

## Cc1ncccc1-c1ccc2c(c1)NC(=O)C2(C)C [Example 19, 3,3-Dimethyl-6-(2-methylpyridin-3-yl)indolin-2-one]
[1]
  inhibition at 30 mg/kg: 61.6%

## Cc1cnccc1-c1ccc2c(c1)NC(=O)C2(C)C [Example 20, 3,3-Dimethyl-6-(3-methylpyridin-4-yl)indolin-2-one]
[1]
  inhibition at 30 mg/kg: 47.5%

## Cc1ncc(-c2ccc3c(c2)NC(=O)C3(C)C)cn1 [Example 21, 3,3-Dimethyl-6-(2-methylpyrimidin-5-yl)indolin-2-one]
  ID50 po: 1.62 mg/kg

## CN1C(=O)C(C)(C)c2ccc(-c3cnc4c(c3)CCC4)cc21 [Example 23, 6-(6,7-Dihydro-5H-cyclopenta[b]pyridin-3-yl)-1,3,3-trimethylindolin-2-one]
[1]
  inhibition at 30 mg/kg: 81.6%

## CN1C(=O)C(C)(C)c2ccc(-c3cnc4c(c3)NCCO4)cc21 [Example 25, 6-(2,3-Dihydro-1H-pyrido[2,3-b][1,4]oxazin-7-yl)-1,3,3-trimethylindolin-2-one]
  ID50 po: 3.03 mg/kg

## Cc1cncc(C)c1-c1ccc2c(c1)N(C)C(=O)C2(C)C [Example 28, 6-(3,5-Dimethyl-pyridin-4-yl)-1,3,3-trimethyl-1,3-dihydro-indol-2-one formate]
[1]
  inhibition at 30 mg/kg: 68.4%

## CN1C(=O)C(C)(C)c2ccc(-c3ccc4nccn4c3)cc21 [Example 30, 6-(Imidazo[1,2-a]pyridin-6-yl)-1,3,3-trimethylindolin-2-one]
[1]
  inhibition at 30 mg/kg: 49.1%

## Cc1ncnc(C)c1-c1ccc2c(c1)N(C)C(=O)C2(C)C [Example 31, 6-(4,6-Dimethyl-pyrimidin-5-yl)-1,3,3-trimethyl-1,3-dihydro-indol-2-one]
[1]
  inhibition at 30 mg/kg: 81.2%

## CN1C(=O)C(C)(C)c2ccc(-c3cccnc3)c(F)c21 [Example 34, 7-Fluoro-1,3,3-trimethyl-6-(pyridin-3-yl)indolin-2-one]
[1]
  inhibition at 30 mg/kg: 56.9%

## Cc1c(-c2cccnc2)ccc2c1N(C)C(=O)C2(C)C [Example 36, 1,3,3,7-Tetramethyl-6-(pyridin-3-yl)indolin-2-one]
[1]
  inhibition at 30 mg/kg: 79.3%

## CN1C(=O)C(C)(C)c2cc(F)c(-c3ccncc3)cc21 [Example 38, 5-Fluoro-1,3,3-trimethyl-6-(pyridin-4-yl)indolin-2-one]
[1]
  inhibition at 30 mg/kg: 57.3%

## CN1C(=O)C(C)(C)c2ccc(-c3ccncc3)c(F)c21 [Example 39, 7-Fluoro-1,3,3-trimethyl-6-pyridin-4-yl-1,3-dihydro-indol-2-one]
[1]
  inhibition at 30 mg/kg: 77.6%

## CN1C(=O)C(C)(C)c2cc(F)c(-c3cncnc3)c(F)c21 [Example 43, 5,7-Difluoro-1,3,3-trimethyl-6-pyrimidin-5-yl-1,3-dihydro-indol-2-one]
[1]
  inhibition at 30 mg/kg: 60.5%

## Cc1ncc(-c2ccc3c(c2)N(CC2CCC2)C(=O)C3(C)C)cn1 [Example 48, 1-(Cyclobutylmethyl)-3,3-dimethyl-6-(2-methylpyrimidin-5-yl)indolin-2-one]
[1]
  inhibition at 30 mg/kg: 68.6%

## Cc1ncc(-c2ccc3c(c2)N(CCCOC2CC2)C(=O)C3(C)C)cn1 [Example 50, 1-(3-Cyclopropoxypropyl)-3,3-dimethyl-6-(2-methylpyrimidin-5-yl)indolin-2-one]
[1]
  inhibition at 30 mg/kg: 86.3%

## Cc1ncc(-c2ccc3c(c2)N(CCO)C(=O)C3(C)C)cn1 [Example 55, 1-(2-Hydroxyethyl)-3,3-dimethyl-6-(2-methylpyrimidin-5-yl)indolin-2-one]
  ID50 po: 0.88 mg/kg

## Cc1ncc(-c2ccc3c(c2)N(CCCO)C(=O)C3(C)C)cn1 [Example 56, 1-(3-Hydroxypropyl)-3,3-dimethyl-6-(2-methylpyrimidin-5-yl)indolin-2-one]
[1]
  inhibition at 30 mg/kg: 93.9%

## Cc1ncc(-c2ccc3c(c2)N(CCS(C)(=O)=O)C(=O)C3(C)C)cn1 [Example 57]
[1]
  inhibition at 30 mg/kg: 79.9%

## Cc1noc(-c2ccc3c(c2)N(C)C(=O)C3(C)C)n1 [Example 59, 1,3,3-Trimethyl-6-(3-methyl-1,2,4-oxadiazol-5-yl)indolin-2-one]
[1]
  inhibition at 30 mg/kg: 45.2%

## Cc1noc(-c2ccc3c(c2)NC(=O)C3(C)C)n1 [Example 60, 3,3-Dimethyl-6-(3-methyl-1,2,4-oxadiazol-5-yl)indolin-2-one]
[1]
  inhibition at 30 mg/kg: 24%

## CN1C(=O)C(C)(C)c2ccc(-n3ccnc3)cc21 [Example 61, 6-(1H-Imidazol-1-yl)-1,3,3-trimethylindolin-2-one]
  ID50 po: 10.71 mg/kg

## Cc1cn(-c2ccc3c(c2)NC(=O)C3(C)C)cn1 [Example 63, 3,3-Dimethyl-6-(4-methyl-1H-imidazol-1-yl)indolin-2-one]
[1]
  inhibition at 30 mg/kg: 68.9%

## Cc1ncc(-c2ccc3c(c2)N(C)C(=O)C3(C)C)[nH]1 [Example 67, 1,3,3-Trimethyl-6-(2-methyl-1H-imidazol-5-yl)indolin-2-one]
[1]
  inhibition at 30 mg/kg: 42.6%

## Cc1nnc(-c2ccc3c(c2)N(C)C(=O)C3(C)C)s1 [Example 72, 1,3,3-Trimethyl-6-(5-methyl-1,3,4-thiadiazol-2-yl)indolin-2-one]
[1]
  inhibition at 30 mg/kg: 67.4%

## CN1C(=O)C(C)(C)c2ccc(-c3ccc(C4CC4)nn3)cc21 [Example 79, 6-(6-Cyclopropylpyridazin-3-yl)-1,3,3-trimethyl-indolin-2-one]
Mus musculus, dose ip 20 mg/kg, at the same time as s.c. 50 mg/kg L-687,414
  inhibition at 20 mg/kg: 62.5%

## Cc1cc(-c2cc3c(cn2)C(C)(C)C(=O)N3C)ccn1 [Example 83, 1,3,3-Trimethyl-6-(2-methyl-4-pyridyl)pyrrolo[3,2-c]pyridin-2-one]
[1]
  inhibition at 30 mg/kg: 53%

## Cn1cc(-c2ccc3c(c2)NC(=O)C3(C)C)cn1 [Example 87, 3,3-Dimethyl-6-(1-methyl-1H-pyrazol-4-yl)indolin-2-one]
[1]
  inhibition at 30 mg/kg: 82.8%
